Laboratory results from US11279697B2, “Aromatic derivative, preparation method for same, and medical applications thereof” (BIOARDIS LLC, priority 2017, dated 2022).

What follows are compounds tested against human FGFR4 protein (460-802 amino acids) (Homo sapiens (Human), UniProt P22455) (assay: FGFR4 Activity Inhibition Test (HTRF KinEASE-TK in vitro kinase assay)). Conditions: compound-enzyme incubation 60 min at room temperature, kinase reaction 37° C. 40 min, 10 concentration points.
Chain of human FGFR4 protein (460-802 amino acids) (P22455 460-802): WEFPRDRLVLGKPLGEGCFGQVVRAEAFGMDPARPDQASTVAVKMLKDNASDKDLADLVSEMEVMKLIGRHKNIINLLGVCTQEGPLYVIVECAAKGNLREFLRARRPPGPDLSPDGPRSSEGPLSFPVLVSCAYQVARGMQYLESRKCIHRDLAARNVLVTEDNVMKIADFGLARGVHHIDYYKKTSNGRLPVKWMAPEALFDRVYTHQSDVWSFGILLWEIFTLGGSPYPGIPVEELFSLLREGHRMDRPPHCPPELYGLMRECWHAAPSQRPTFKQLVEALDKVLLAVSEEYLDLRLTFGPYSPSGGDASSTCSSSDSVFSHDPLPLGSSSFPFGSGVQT
Type: biochemical
Protocol: The influence of the compound of the present invention on the activity of the tyrosine kinase FGFR4 was evaluated by an in vitro kinase assay experiment. The experimental method is summarized as follows: A HTRF® KinEASE™-TK 20000 tests kinase assay kit from CISBIO Corp. was used. The kit provided a biotin-labeled substrate, an EU-labeled phosphorylation site-specific antibody, and XL665-labeled avidin and a related buffer. FGFR4 phosphorylated the substrate, Eu-Ab identified the phosphorylated substrate, and XL665-SA binded to the biotin on the substrate, making Eu get closer to XL665, thus generating the HTRF signal. Changes in the activity of kinase was detected by reading the intensity of the HTRF signal. In the kinase assay experiment, there were mainly two steps of reaction: kinase reaction and assay reaction, respectively. In the kinase reaction, the kinase consumed ATP to phosphorylate the substrate, and at the same time produced a substrate containing a phosphate group. In the assay reaction, an assay reagent was added to terminate the kinase reaction. At the same time, the specific antibody and the XL665-labeled avidin in the assay reagent were binded to the phosphate group on the substrate and biotin respectively to generate HTRF signals. The signal intensity was directly proportional to the phosphorylation level of the substrate, and thereby the activity of the kinase FGFR4 could be quantitatively assayed. During the assay, the binding and incubation of the compound with the enzyme was carried out at room temperature for 60 min. The kinase reaction was carried out at a constant temperature of 37° C. for 40 min. […] The kinase substrates were TK (commercially available from Cisbio) and ATP (Sigma). The optical signals were read by a microplate reader TECAN Spark 10M plate reader (TECAN). The kinase reaction buffer comprised 1× Enzymatic buffer (CISBIO) 5 mM MgCl2 (Sigma) and 1 mM DTT (Sigma). […] First, the compound was dissolved and diluted with 100% DMSO into a 96-well plate at 3 concentrations: 4 mM, 40 μM, and 0.4 μM. […] Each concentration point was provided with two copy holes (starting point 10 μM, 3-fold dilution). First, 6 μL of the kinase solution was added into the 384-well assay plate, mixed uniformly and then incubated at room temperature for 60 min. Then 4 μL of the substrate reaction solution was added, and the total reaction volume was 10 μL. […] Subsequently, 10 μL of the kinase assay reagent was added and the reaction was terminated. Then the numerical values were read on the TECAN plate reader. The inhibition percentage was calculated based on the following formula: % inhibition=[1−(RLUcompound−RLUmin)/(RLUmax−RLUmin)]×100 wherein RLUcompound is the luminescence reading at the given compound concentration, RLUmin is the luminescence reading without the addition of kinase, and RLUmax is the luminescence reading without the addition of the compound. IC50 of the compound was calculated by the XLfit program in Excel.
Compound `C=CC(=O)Nc1cnn(C)c1-c1n[nH]c2c1CC[C@@H](c1c(F)c(OC)cc(OC)c1F)C2` (single isomer, unassigned) [Compound 281-P1, N-(5-(6-(2,6-difluoro-3,5-dimethoxyphenyl)-4,5,6,7-tetrahydro-1H-indazol-3-yl)-1-methyl-1H-pyrazol-4-yl)acrylamide] has an IC50 of 5.73 nM. Compound `C=CC(=O)Nc1cnn(C)c1-c1n[nH]c2c1CC[C@@H](c1c(F)c(OC)cc(OC)c1F)C2` (single isomer, unassigned) [Compound 281-P2, N-(5-(6-(2,6-difluoro-3,5-dimethoxyphenyl)-4,5,6,7-tetrahydro-1H-indazol-3-yl)-1-methyl-1H-pyrazol-4-yl)acrylamide] has an IC50 of 2.96 nM. `C=CC(=O)Nc1ccc(N2CCN(C)CC2)cc1-c1n[nH]c2c1CC[C@@H](c1c(Cl)c(OC)cc(OC)c1Cl)C2` (single isomer, unassigned) [Compound 283-P1, N-(2-(6-(2,6-dichloro-3,5-dimethoxyphenyl)-4,5,6,7-tetrahydro-1H-indazol-3-yl)-4-(4-methylpiperazin-1-yl)phenyl)acrylamide] gave an IC50 of 190 nM. In the case of `C=CC(=O)Nc1ccc(N2CCN(C)CC2)cc1-c1n[nH]c2c1CC[C@@H](c1c(Cl)c(OC)cc(OC)c1Cl)C2` (single isomer, unassigned) [Compound 283-P2, N-(2-(6-(2,6-dichloro-3,5-dimethoxyphenyl)-4,5,6,7-tetrahydro-1H-indazol-3-yl)-4-(4-methylpiperazin-1-yl)phenyl)acrylamide], the IC50 is reported as 45 nM. `C=CC(=O)Nc1ccc(Cl)cc1-c1n[nH]c2c1CC[C@@H](c1c(Cl)c(OC)cc(OC)c1Cl)C2` (single isomer, unassigned) [Compound 287-P1, N-(4-chloro-2-(6-(2,6-dichloro-3,5-dimethoxyphenyl)-4,5,6,7-tetrahydro-1H-indazol-3-yl)phenyl)acrylamide] showed an IC50 of 158 nM. `C=CC(=O)Nc1ccc(Cl)cc1-c1n[nH]c2c1CC[C@@H](c1c(Cl)c(OC)cc(OC)c1Cl)C2` (single isomer, unassigned) [Compound 287-P2, N-(4-chloro-2-(6-(2,6-dichloro-3,5-dimethoxyphenyl)-4,5,6,7-tetrahydro-1H-indazol-3-yl)phenyl)acrylamide] was tested, and the IC50 was 91.1 nM. Compound `C=CC(=O)Nc1cc(Cl)ccc1-c1n[nH]c2c1CC[C@@H](c1c(Cl)c(OC)cc(OC)c1Cl)C2` (single isomer, unassigned) [Compound 289-P1, N-(5-chloro-2-(6-(2,6-dichloro-3,5-dimethoxyphenyl)-4,5,6,7-tetrahydro-1H-indazol-3-yl)phenyl)acrylamide] has an IC50 of 109 nM. With `C=CC(=O)Nc1cc(Cl)ccc1-c1n[nH]c2c1CC[C@@H](c1c(Cl)c(OC)cc(OC)c1Cl)C2` (single isomer, unassigned) [Compound 289-P2, N-(5-chloro-2-(6-(2,6-dichloro-3,5-dimethoxyphenyl)-4,5,6,7-tetrahydro-1H-indazol-3-yl)phenyl)acrylamide] the IC50 was 210 nM. With `C=CC(=O)Nc1ccc(N2CCN(C)CC2)cc1-c1n[nH]c2c1CC[C@@H](c1c(F)c(OC)cc(OC)c1F)C2` (single isomer, unassigned) [Compound 301-P1, N-(2-(6-(2,6-difluoro-3,5-dimethoxyphenyl)-4,5,6,7-tetrahydro-1H-indazol-3-yl)-4-(4-methylpiperazin-1-yl)phenyl)acrylamide] the IC50 was 3.4 nM. In the case of `C=CC(=O)Nc1ccc(N2CCN(C)CC2)cc1-c1n[nH]c2c1CC[C@@H](c1c(F)c(OC)cc(OC)c1F)C2` (single isomer, unassigned) [Compound 301-P2, N-(2-(6-(2,6-difluoro-3,5-dimethoxyphenyl)-4,5,6,7-tetrahydro-1H-indazol-3-yl)-4-(4-methylpiperazin-1-yl)phenyl)acrylamide], the IC50 is reported as 11.8 nM. `C=CC(=O)Nc1cnn(C)c1-c1n[nH]c2c1CC[C@@H](c1cc(OC)cc(OC)c1F)C2` (single isomer, unassigned) [Compound 302-P1, N-(5-(6-(2-fluoro-3,5-dimethoxyphenyl)-4,5,6,7-tetrahydro-1H-indazol-3-yl)-1-methyl-1H-pyrazol-4-yl)acrylamide] gave an IC50 of 85.5 nM. `C=CC(=O)Nc1cnn(C)c1-c1n[nH]c2c1CC[C@@H](c1cc(OC)cc(OC)c1F)C2` (single isomer, unassigned) [Compound 302-P2, N-(5-(6-(2-fluoro-3,5-dimethoxyphenyl)-4,5,6,7-tetrahydro-1H-indazol-3-yl)-1-methyl-1H-pyrazol-4-yl)acrylamide] showed an IC50 of 35.4 nM. Compound `C=CC(=O)Nc1cnn(C)c1-c1n[nH]c2c1CC[C@@H](c1c(F)c(OC)cc(OC)c1Cl)C2` (single isomer, unassigned) [Compound 303-P1, N-(5-(6-(2-chloro-6-fluoro-3,5-dimethoxyphenyl)-4,5,6,7-tetrahydro-1H-indazol-3-yl)-1-methyl-1H-pyrazol-4-yl)acrylamide] has an IC50 of 6 nM. `C=CC(=O)Nc1cnn(C)c1-c1n[nH]c2c1CC[C@@H](c1c(F)c(OC)cc(OC)c1Cl)C2` (single isomer, unassigned) [Compound 303-P2, N-(5-(6-(2-chloro-6-fluoro-3,5-dimethoxyphenyl)-4,5,6,7-tetrahydro-1H-indazol-3-yl)-1-methyl-1H-pyrazol-4-yl)acrylamide] showed an IC50 of 5.5 nM. `C=CC(=O)Nc1cnn(C)c1-c1n[nH]c2c1CC[C@@H](c1cc(OC)cc(OC)c1)C2` (single isomer, unassigned) [Compound 310-P1, N-(5-(6-(3,5-dimethoxyphenyl)-4,5,6,7-tetrahydro-1H-indazol-3-yl)-1-methyl-1H-pyrazol-4-yl)acrylamide] showed an IC50 of 446 nM. With `C=CC(=O)Nc1cnn(C)c1-c1n[nH]c2c1CC[C@@H](c1cc(OC)cc(OC)c1)C2` (single isomer, unassigned) [Compound 310-P2, N-(5-(6-(3,5-dimethoxyphenyl)-4,5,6,7-tetrahydro-1H-indazol-3-yl)-1-methyl-1H-pyrazol-4-yl)acrylamide] the IC50 was 171 nM. Work on `C=CC(=O)Nc1cnn(C)c1-c1n[nH]c2c1CC[C@@H](c1cc(OC)cc(OC)c1Cl)C2` (single isomer, unassigned) [Compound 311-P1, N-(5-(6-(2-chloro-3,5-dimethoxyphenyl)-4,5,6,7-tetrahydro-1H-indazol-3-yl)-1-methyl-1H-pyrazol-4-yl)acrylamide] yielded an IC50 of 203 nM. For `C=CC(=O)Nc1cnn(C)c1-c1n[nH]c2c1CC[C@@H](c1cc(OC)cc(OC)c1Cl)C2` (single isomer, unassigned) [Compound 311-P2, N-(5-(6-(2-chloro-3,5-dimethoxyphenyl)-4,5,6,7-tetrahydro-1H-indazol-3-yl)-1-methyl-1H-pyrazol-4-yl)acrylamide], the IC50 was 129 nM. In the case of `C=CC(=O)Nc1ccccc1-c1n[nH]c2c1CCC(c1c(F)c(OC)cc(OC)c1F)C2` (stereo not drawn) [Compound 093, N-(2-(6-(2,6-difluoro-3,5-dimethoxyphenyl)-4,5,6,7-tetrahydro-1H-indazol-3-yl)phenyl)acrylamide], the IC50 is reported as 29.2 nM. `CC#CC(=O)Nc1ccccc1-c1cc(CCc2c(Cl)c(OC)cc(OC)c2Cl)[nH]n1` [Compound 096, N-(2-(5-(2,6-dichloro-3,5-dimethoxyphenethyl)-1H-pyrazol-3-yl)phenyl)but-2-ynoic amide] gave an IC50 of 348 nM. `C=CC(=O)Nc1ccccc1-c1n[nH]c2c1CCC(c1cc(OC)cc(OC)c1F)C2` (stereo not drawn) [Compound 114, N-(2-(6-(2-fluoro-3,5-dimethoxyphenyl)-4,5,6,7-tetrahydro-1H-indazol-3-yl)phenyl)acrylamide] was tested, and the IC50 was 158 nM. For `C=CC(=O)Nc1cc(F)ccc1-c1n[nH]c2c1CCC(c1c(Cl)c(OC)cc(OC)c1Cl)=C2` [Compound 296, N-(2-(6-(2,6-dichloro-3,5-dimethoxyphenyl)-4,5-dihydro-1H-indazol-3-yl)-5-fluorophenyl)acrylamide], the IC50 was 118 nM. Work on `C=CC(=O)Nc1ccc(F)cc1-c1n[nH]c2c1CCC(c1c(Cl)c(OC)cc(OC)c1Cl)=C2` [Compound 297, N-(2-(6-(2,6-dichloro-3,5-dimethoxyphenyl)-4,5-dihydro-1H-indazol-3-yl)-4-fluorophenyl)acrylamide] yielded an IC50 of 236 nM. Work on `C=CC(=O)Nc1ccc(N2CCOCC2)cc1-c1n[nH]c2c1CCC(c1c(Cl)c(OC)cc(OC)c1Cl)=C2` [Compound 300, N-(2-(6-(2,6-dichloro-3,5-dimethoxyphenyl)-4,5-dihydro-1H-indazol-3-yl)-4-morpholinophenyl)acrylamide] yielded an IC50 of 504 nM.
